Experimental data reported in patent publication US11873309B2, “Heterocyclic compounds as immunomodulators” (Incyte Corporation, priority 2016, dated 2024).

Molecular target: T1, PD-1/PD-L1 protein/protein interaction (recombinant human PD-L1 protein (19-238), recombinant human PD-1 protein (25-167)) (Homo sapiens, UniProt Q9NZQ7)
T1 construct: Recombinant human PD-L1 protein (19-238) with a His-tag at the C-terminus; purchased AcroBiosystems PD1-H5229 (PD-L1); PD1-H5257 (PD-1)
Experiment: PD-1/PD-L1 Homogeneous Time-Resolved Fluorescence (HTRF) Binding Assay
Conditions: 25° C., PBS buffer pH 7.4, 40 minutes preincubation with inhibitors
Procedure: Example A. PD-1/PD-L1 Homogeneous Time-Resolved Fluorescence (HTRF) Binding Assay
The assays were conducted in a standard black 384-well polystyrene plate with a final volume of 20 μL. Inhibitors were first serially diluted in DMSO and then added to the plate wells before the addition of other reaction components. The final concentration of DMSO in the assay was 1%. The assays were carried out at 25° C. in the PBS buffer (pH 7.4) with 0.05% Tween-20 and 0.1% BSA. Recombinant human PD-L1 protein (19-238) with a His-tag at the C-terminus was purchased from AcroBiosystems (PD1-H5229). Recombinant human PD-1 protein (25-167) with Fc tag at the C-terminus was also purchased from AcroBiosystems (PD1-H5257). PD-L1 and PD-1 proteins were diluted in the assay buffer and 10 μL was added to the plate well. Plates were centrifuged and proteins were preincubated with inhibitors for 40 minutes. The incubation was followed by the addition of 10 μL of HTRF detection buffer supplemented with Europium cryptate-labeled anti-human IgG (PerkinElmer-AD0212) specific for Fc and anti-His antibody conjugated to SureLight®-Allophycocyanin (APC, PerkinElmer-AD0059H). After centrifugation, the plate was incubated at 25° C. for 60 min. before reading on a PHERAstar FS plate reader (665 nm/620 nm ratio). Final concentrations in the assay were […], 10 nM PD-L1, 1 nM europium anti-human IgG and 20 nM anti-His-Allophycocyanin. IC50 determination was performed by fitting the curve of percent control activity versus the log of the inhibitor concentration using the GraphPad Prism 5.0 software.

T1 sequence (Q9NZQ7 19-238): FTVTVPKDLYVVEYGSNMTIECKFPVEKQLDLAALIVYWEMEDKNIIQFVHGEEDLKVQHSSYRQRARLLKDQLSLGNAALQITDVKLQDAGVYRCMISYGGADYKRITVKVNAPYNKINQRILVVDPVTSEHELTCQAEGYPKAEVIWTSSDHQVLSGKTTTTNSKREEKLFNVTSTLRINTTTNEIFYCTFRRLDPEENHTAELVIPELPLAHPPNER

Row | IC50 | SMILES
1 | ≤ 100 nM | N#Cc1c(NC(=O)c2nc3c(s2)CNCC3)cccc1-c1ccc2c(c1)OCCO2 [Example 1, N-[2-cyano-3-(2,3-dihydro-1,4-benzodioxin-6-yl)phenyl]-4,5,6,7-tetrahydro[1,3]thiazolo[5,4-c]pyridine-2-carboxamide]
2 | ≤ 100 nM | N#Cc1c(NC(=O)c2nc3c(s2)CNCC3)cccc1-c1ccccc1 [Example 2, N-(2-cyanobiphenyl-3-yl)-4,5,6,7-tetrahydro[1,3]thiazolo[5,4-c]pyridine-2-carboxamide]
3 | ≤ 100 nM | Cn1ncc2c(-c3cccc(NC(=O)c4nc5c(s4)CNCC5)c3C#N)cccc21 [Example 3, N-[2-cyano-3-(1-methyl-1H-indazol-4-yl)phenyl]-4,5,6,7-tetrahydro[1,3]thiazolo[5,4-c]pyridine-2-carboxamide]
4 | ≤ 100 nM | N#Cc1c(NC(=O)c2nc3c(s2)CNCC3)cccc1-c1ccccc1F [Example 4, N-(2-cyano-2′-fluorobiphenyl-3-yl)-4,5,6,7-tetrahydro[1,3]thiazolo[5,4-c]pyridine-2-carboxamide]
5 | ≤ 100 nM | COc1cccc(-c2cccc(NC(=O)c3nc4c(s3)CNCC4)c2C#N)c1F [Example 5, N-(2-cyano-2′-fluoro-3′-methoxybiphenyl-3-yl)-4,5,6,7-tetrahydro[1,3]thiazolo[5,4-c]pyridine-2-carboxamide]
6 | ≤ 100 nM | N#Cc1c(NC(=O)c2nc3c(s2)CNCC3)cccc1-c1ccc2c(c1)OCC2 [Example 6, N-[2-cyano-3-(2,3-dihydro-1-benzofuran-6-yl)phenyl]-4,5,6,7-tetrahydro[1,3]thiazolo[5,4-c]pyridine-2-carboxamide]
7 | ≤ 100 nM | N#Cc1c(NC(=O)c2nc3c(s2)CNCC3)cccc1C1=CCCCC1 [Example 7, N-(2-cyano-3-cyclohex-1-en-1-ylphenyl)-4,5,6,7-tetrahydro[1,3]thiazolo[5,4-c]pyridine-2-carboxamide]
8 | 100 to 500 nM | N#Cc1c(NC(=O)c2nc3c(s2)CNCC3)cccc1C1CCCCC1 [Example 8, N-(2-cyano-3-cyclohexylphenyl)-4,5,6,7-tetrahydro[1,3]thiazolo[5,4-c]pyridine-2-carboxamide]
9 | ≤ 100 nM | N#Cc1c(NC(=O)c2nc3c(s2)CNCC3)cccc1-c1c(F)cccc1F [Example 9, N-(2-cyano-2′,6′-difluorobiphenyl-3-yl)-4,5,6,7-tetrahydro[1,3]thiazolo[5,4-c]pyridine-2-carboxamide]
10 | 100 to 500 nM | N#Cc1c(NC(=O)c2cc3n(n2)CCNC3)cccc1-c1ccc2c(c1)OCCO2 [Example 10, N-[2-cyano-3-(2,3-dihydro-1,4-benzodioxin-6-yl)phenyl]-4,5,6,7-tetrahydropyrazolo[1,5-a]pyrazine-2-carboxamide]
11 | 100 to 500 nM | N#Cc1c(NC(=O)c2cc3n(n2)CCN(CCO)C3)cccc1-c1ccc2c(c1)OCCO2 [Example 11, N-[2-cyano-3-(2,3-dihydro-1,4-benzodioxin-6-yl)phenyl]-5-(2-hydroxyethyl)-4,5,6,7-tetrahydropyrazolo[1,5-a]pyrazine-2-carboxamide]
12 | ≤ 100 nM | Cn1c(C(=O)Nc2cccc(-c3ccc4c(c3)OCCO4)c2C#N)nc2c1CCNC2 [Example 12, N-[2-cyano-3-(2,3-dihydro-1,4-benzodioxin-6-yl)phenyl]-1-methyl-4,5,6,7-tetrahydro-1H-imidazo[4,5-c]pyridine-2-carboxamide]
13 | ≤ 100 nM | Cn1c(C(=O)Nc2cccc(-c3ccc4c(c3)OCCO4)c2C#N)nc2c1CCN(CCO)C2 [Example 13, N-(2-cyano-3-(2,3-dihydrobenzo[b][1,4]dioxin-6-yl)phenyl)-5-(2-hydroxyethyl)-1-methyl-4,5,6,7-tetrahydro-1H-imidazo[4,5-c]pyridine-2-carboxamide]
14 | 500 to 10000 nM | N#Cc1c(NC(=O)c2nc3n(n2)CCNC3)cccc1-c1ccc2c(c1)OCCO2 [Example 14, N-[2-cyano-3-(2,3-dihydro-1,4-benzodioxin-6-yl)phenyl]-5,6,7,8-tetrahydro[1,2,4]triazolo[1,5-a]pyrazine-2-carboxamide]
